Test results: patent US4593104A, “2-halo-N-(azole-1-yl-methyl)-substituted acetanilides” (BASF Aktiengesellschaft, priority 1976, dated 1986)

How the values were obtained:
Glyc. max = assay: preemergence treatment in the greenhouse, % damage; type: in vivo, Glycine max
Excerpt: (§1) The vessels employed were plastic flowerpots having a volume of 300 cm^3; the substrate was a sandy loam containing about 1.5% humus. The seeds of the test plants (see Table 1) were sown shallow, and separated according to species. In the case of Cyperus esculentus, pregerminated tubers were planted. In the preemergence treatment, the active ingredients were then immediately applied to the surface of the soil. They were suspended or emulsified in water as the vehicle, and sprayed through atomizing nozzles. After the agents had been applied, the vessels were lightly sprinkler-irrigated to set germination and growth going, and to activate the chemical agents. The vessels were then covered with transparent plastic hoods until the plants had taken root. This cover ensured uniform germination of the test plants (to the extent that this was not impaired by the chemicals), and prevented readily volatile substances from evaporating.
(§2) For postemergence treatment, the plants were first grown to a height of from 3 to 10 cm, depending on their habit, before treated. Hoods were not placed on the pots. The experiments were set up in the greenhouse, hotter areas (25° to 40° C.) being preferred for heat-loving species, and 15° to 30° C. for plants from moderate climates. The experiments were carried out for from 4 to 6 weeks. During this period the plants were tended and their reaction to the various treatments was assessed. The following tables contain the substances investigated, the application rates in kg/ha of active ingredient, and the test plant species. Assessments were made on a 0 to 100 scale, 0 denoting no damage or normal emergence, and 100 denoting no emergence or complete destruction of at least the visible plant parts.

Alopec. myosur. [1] = assay: preemergence treatment in the greenhouse, % damage; type: in vivo
Excerpt: as §1, §2

Bromus spp. = assay: preemergence treatment in the greenhouse, % damage; type: in vivo
Excerpt: as §1, §2

Cyperus ferax = assay: preemergence treatment in the greenhouse, % damage; type: in vivo
Excerpt: as §1, §2

Echin. c.g. = assay: preemergence treatment in the greenhouse, % damage; type: in vivo
Excerpt: as §1, §2

Setaria spp. [2] = assay: preemergence treatment in the greenhouse, % damage; type: in vivo
Excerpt: as §1, §2

Matric. spp. [3] = assay: preemergence treatment in the greenhouse, % damage; type: in vivo
Excerpt: as §1, §2

Beta vulg. = assay: preemergence treatment in the greenhouse, % damage; type: in vivo, Beta vulgaris
Excerpt: as §1, §2

Setaria spp. [4] = assay: postemergence application in the greenhouse, % damage; type: in vivo
Excerpt: as §1, §2

Stell. med. = assay: as above; type: in vivo
Excerpt: as §1, §2

Avena fat. = assay: as above; type: in vivo
Excerpt: as §1, §2

Sorgh. halep. = assay: preemergence treatment in the greenhouse, % damage; type: in vivo
Excerpt: as §1, §2

Cyp. diff. = assay: preemergence treatment in the greenhouse, % damage; type: in vivo
Excerpt: as §1, §2

Amar. retro. = assay: preemergence treatment in the greenhouse, % damage; type: in vivo
Excerpt: as §1, §2

Poa annua = assay: preemergence treatment in the greenhouse, % damage; type: in vivo
Excerpt: as §1, §2

Cyper. escul. [5] = assay: postemergence application in the greenhouse, % damage; type: in vivo, Cyperus esculentus
Excerpt: as §1, §2

Alopec. myosur. [6] = assay: preemergence application in the open, % damage; type: in vivo
Experimental: (§3) The experiments were carried out on small plots. The soil was a sandy loam having a pH of from 5 to 6 and containing from 1 to 1.5% humus. The treatment was preemergence, the active ingredients being applied immediately or at the latest 3 days after sowing. The crop plants were sown in rows. The weed flora was made up of the most widely varying species and was natural; the weed flora depended on the time of the year and in part on the crop (e.g., spring-germinating, summer-germinating). The substances were emulsified or suspended in water as the vehicle, and applied by means of a motor-driven plot spray mounted on a hitch. When no rain fell, the plots were watered to ensure germination and growth of the crop plants and weeds. All the experiments were run for several weeks. Over this period, assessments were made at certain intervals on the 0 to 100 scale.

Anth./Matric. = assay: preemergence application in the open, % damage; type: in vivo
Experimental: as §3

Lamium spp. = assay: preemergence application in the open, % damage; type: in vivo
Experimental: as §3

Stellaria media = assay: preemergence application in the open, % damage; type: in vivo
Experimental: as §3

Brassica napus = assay: preemergence application in the open, % damage; type: in vivo
Experimental: as §3

Alopec. myosur. [7] = assay: postemergence application in the greenhouse, % damage; type: in vivo
Excerpt: as §1, §2

Matric. spp. [8] = assay: as above; type: in vivo
Excerpt: as §1, §2

Chrys. seget. = assay: as above; type: in vivo
Excerpt: as §1, §2

Solanum nigrum = assay: preemergence treatment in the greenhouse, % damage; type: in vivo
Excerpt: as §1, §2

Euph. gen. = assay: preemergence treatment in the greenhouse, % damage; type: in vivo
Excerpt: as §1, §2

Cyper. escul. [9] = assay: preemergence treatment in the greenhouse, % damage; type: in vivo, Cyperus esculentus
Excerpt: as §1, §2

Gossyp. hirs. = assay: preemergence treatment in the greenhouse, % damage; type: in vivo, Gosspyium hirsutum
Excerpt: as §1, §2

## COc1cnn(CN(C(=O)CCl)c2c(C)cccc2C)c1
Glyc. max; 0.5 kg/ha
  % damage: 0%
Glyc. max; 1.0 kg/ha
  % damage: 0%
Alopec. myosur. [1]; 0.5 kg/ha
  % damage: 100%
Alopec. myosur. [1]; 1.0 kg/ha
  % damage: 100%
Bromus spp.; 0.5 kg/ha
  % damage: 100%
Bromus spp.; 1.0 kg/ha
  % damage: 100%
Cyperus ferax; 0.5 kg/ha
  % damage: 100%
Cyperus ferax; 1.0 kg/ha
  % damage: 100%
Echin. c.g.; 0.5 kg/ha
  % damage: 100%
Echin. c.g.; 1.0 kg/ha
  % damage: 100%
Setaria spp. [2]; 0.5 kg/ha
  % damage: 100%
Setaria spp. [2]; 1.0 kg/ha
  % damage: 100%
Matric. spp. [3]; 0.5 kg/ha
  % damage: 95%
Matric. spp. [3]; 1.0 kg/ha
  % damage: 95%

## CCc1cccc(C)c1N(Cn1cc(OC)cn1)C(=O)CCl
Beta vulg.; 0.5 kg/ha
  % damage: 5%
Beta vulg.; 1.0 kg/ha
  % damage: 15%
Glyc. max; 0.5 kg/ha
  % damage: 0%
Glyc. max; 1.0 kg/ha
  % damage: 0%
Alopec. myosur. [1]; 0.5 kg/ha
  % damage: 100%
Alopec. myosur. [1]; 1.0 kg/ha
  % damage: 100%
Bromus spp.; 0.5 kg/ha
  % damage: 90%
Bromus spp.; 1.0 kg/ha
  % damage: 98%
Cyperus ferax; 0.5 kg/ha
  % damage: 100%
Cyperus ferax; 1.0 kg/ha
  % damage: 100%
Echin. c.g.; 0.5 kg/ha
  % damage: 100%
Echin. c.g.; 1.0 kg/ha
  % damage: 100%
Setaria spp. [2]; 0.5 kg/ha
  % damage: 100%
Setaria spp. [2]; 1.0 kg/ha
  % damage: 100%
Matric. spp. [3]; 0.5 kg/ha
  % damage: 98%
Matric. spp. [3]; 1.0 kg/ha
  % damage: 98%

## Cc1cc(C)n(CN(C(=O)CCl)c2c(C)cccc2C)n1 [Compound 38]
Setaria spp. [4]; 1.0 kg/ha
  % damage: 85%
Setaria spp. [4]; 2.0 kg/ha
  % damage: 85%
Stell. med.; 1.0 kg/ha
  % damage: 100%
Stell. med.; 2.0 kg/ha
  % damage: 100%
Avena fat.; 1.0 kg/ha
  % damage: 70%
Avena fat.; 2.0 kg/ha
  % damage: 90%
Bromus spp.; 0.125 kg/ha
  % damage: 95%
Bromus spp.; 0.25 kg/ha
  % damage: 100%
Sorgh. halep.; 0.125 kg/ha
  % damage: 70%
Sorgh. halep.; 0.25 kg/ha
  % damage: 95%
Cyp. diff.; 0.125 kg/ha
  % damage: 100%
Cyp. diff.; 0.25 kg/ha
  % damage: 100%
Amar. retro.; 0.125 kg/ha
  % damage: 75%
Amar. retro.; 0.25 kg/ha
  % damage: 100%
Poa annua; 0.125 kg/ha
  % damage: 100%
Poa annua; 0.25 kg/ha
  % damage: 100%
Cyper. escul. [5]; 1.0 kg/ha
  % damage: 80%
Cyper. escul. [5]; 2.0 kg/ha
  % damage: 80%
Alopec. myosur. [6]; 2.0 kg/ha
  % damage: 80%
Anth./Matric.; 2.0 kg/ha
  % damage: 100%
Lamium spp.; 2.0 kg/ha
  % damage: 100%
Stellaria media; 2.0 kg/ha
  % damage: 88%
Brassica napus; 2.0 kg/ha
  % damage: 0%

## CCc1cccc(C)c1N(Cn1ccc(C)n1)C(=O)CCl [Compound 68]
Glyc. max; 0.25 kg/ha
  % damage: 0%
Glyc. max; 1.0 kg/ha
  % damage: 0%
Glyc. max; 2.0 kg/ha
  % damage: 10%
Alopec. myosur. [7]; 1.0 kg/ha
  % damage: 90%
Alopec. myosur. [7]; 2.0 kg/ha
  % damage: 90%
Setaria spp. [4]; 1.0 kg/ha
  % damage: 90%
Setaria spp. [4]; 2.0 kg/ha
  % damage: 95%
Matric. spp. [8]; 1.0 kg/ha
  % damage: 80%
Matric. spp. [8]; 2.0 kg/ha
  % damage: 80%
Chrys. seget.; 1.0 kg/ha
  % damage: 40%
Chrys. seget.; 2.0 kg/ha
  % damage: 50%
Stell. med.; 1.0 kg/ha
  % damage: 60%
Stell. med.; 2.0 kg/ha
  % damage: 60%
Avena fat.; 1.0 kg/ha
  % damage: 90%
Avena fat.; 2.0 kg/ha
  % damage: 90%
Echin. c.g.; 0.25 kg/ha
  % damage: 95%
Echin. c.g.; 1.0 kg/ha
  % damage: 95%
Echin. c.g.; 2.0 kg/ha
  % damage: 95%
Setaria spp. [2]; 0.25 kg/ha
  % damage: 95%
Setaria spp. [2]; 1.0 kg/ha
  % damage: 100%
Setaria spp. [2]; 2.0 kg/ha
  % damage: 100%
Solanum nigrum; 0.25 kg/ha
  % damage: 95%
Solanum nigrum; 1.0 kg/ha
  % damage: 100%
Solanum nigrum; 2.0 kg/ha
  % damage: 100%
Euph. gen.; 0.25 kg/ha
  % damage: 10%
Euph. gen.; 1.0 kg/ha
  % damage: 60%
Euph. gen.; 2.0 kg/ha
  % damage: 75%
Amar. retro.; 0.25 kg/ha
  % damage: 95%
Amar. retro.; 1.0 kg/ha
  % damage: 100%
Amar. retro.; 2.0 kg/ha
  % damage: 100%
Cyper. escul. [5]; 1.0 kg/ha
  % damage: 85%
Cyper. escul. [5]; 2.0 kg/ha
  % damage: 85%
Cyper. escul. [9]; 0.25 kg/ha
  % damage: 65%
Cyper. escul. [9]; 1.0 kg/ha
  % damage: 80%
Cyper. escul. [9]; 2.0 kg/ha
  % damage: 80%
Gossyp. hirs.; 0.25 kg/ha
  % damage: 0%
Gossyp. hirs.; 1.0 kg/ha
  % damage: 5%
Gossyp. hirs.; 2.0 kg/ha
  % damage: 5%

## CCc1cccc(C)c1N(Cn1cncn1)C(=O)CCl [Compound 129]
Alopec. myosur. [6]; 2.0 kg/ha
  % damage: 35%
Alopec. myosur. [6]; 4.0 kg/ha
  % damage: 68%
Anth./Matric.; one value printed for two rates (2.0 4.0 kg/ha)
  % damage: 35%
Lamium spp.; 2.0 kg/ha
  % damage: 45%
Lamium spp.; 4.0 kg/ha
  % damage: 90%
Stellaria media; 2.0 kg/ha
  % damage: 24%
Stellaria media; 4.0 kg/ha
  % damage: 49%
Brassica napus; 2.0 kg/ha
  % damage: 7.5%
Brassica napus; 4.0 kg/ha
  % damage: 22.5%

## CCc1cccc(C)c1N(Cn1cncn1)C(=O)CCl [Compound 189]
Glyc. max; 0.5 kg/ha
  % damage: 0%
Glyc. max; 1.0 kg/ha
  % damage: 0%
Glyc. max; 2.0 kg/ha
  % damage: 0%
Alopec. myosur. [7]; 1.0 kg/ha
  % damage: 70%
Alopec. myosur. [7]; 2.0 kg/ha
  % damage: 70%
Setaria spp. [4]; 1.0 kg/ha
  % damage: 80%
Setaria spp. [4]; 2.0 kg/ha
  % damage: 85%
Matric. spp. [8]; 1.0 kg/ha
  % damage: 30%
Matric. spp. [8]; 2.0 kg/ha
  % damage: 60%
Chrys. seget.; 1.0 kg/ha
  % damage: 0%
Chrys. seget.; 2.0 kg/ha
  % damage: 20%
Stell. med.; 1.0 kg/ha
  % damage: 0%
Stell. med.; 2.0 kg/ha
  % damage: 40%
Avena fat.; 1.0 kg/ha
  % damage: 60%
Avena fat.; 2.0 kg/ha
  % damage: 60%
Echin. c.g.; 0.5 kg/ha
  % damage: 90%
Echin. c.g.; 1.0 kg/ha
  % damage: 95%
Echin. c.g.; 2.0 kg/ha
  % damage: 95%
Setaria spp. [2]; 0.5 kg/ha
  % damage: 75%
Setaria spp. [2]; 1.0 kg/ha
  % damage: 95%
Setaria spp. [2]; 2.0 kg/ha
  % damage: 100%
Solanum nigrum; 0.5 kg/ha
  % damage: 30%
Solanum nigrum; 1.0 kg/ha
  % damage: 95%
Solanum nigrum; 2.0 kg/ha
  % damage: 95%
Euph. gen.; 0.5 kg/ha
  % damage: 90%
Euph. gen.; 1.0 kg/ha
  % damage: 95%
Euph. gen.; 2.0 kg/ha
  % damage: 95%
Amar. retro.; 0.5 kg/ha
  % damage: 30%
Amar. retro.; 1.0 kg/ha
  % damage: 95%
Amar. retro.; 2.0 kg/ha
  % damage: 95%
Cyper. escul. [5]; 1.0 kg/ha
  % damage: 65%
Cyper. escul. [5]; 2.0 kg/ha
  % damage: 65%
Cyper. escul. [9]; 0.5 kg/ha
  % damage: 50%
Cyper. escul. [9]; 1.0 kg/ha
  % damage: 60%
Cyper. escul. [9]; 2.0 kg/ha
  % damage: 80%
Gossyp. hirs.; 0.5 kg/ha
  % damage: 0%
Gossyp. hirs.; 1.0 kg/ha
  % damage: 20%
Gossyp. hirs.; 2.0 kg/ha
  % damage: 20%

## CCc1cccc(C)c1N(Cn1cncn1)C(=O)CCl [Compound 191]
Alopec. myosur. [6]; 2.0 kg/ha
  % damage: 30%
Alopec. myosur. [6]; 4.0 kg/ha
  % damage: 80%
Anth./Matric.; 2.0 kg/ha
  % damage: 53%
Lamium spp.; 2.0 kg/ha
  % damage: 40%
Lamium spp.; 4.0 kg/ha
  % damage: 85%
Stellaria media; 2.0 kg/ha
  % damage: 18%
Stellaria media; 4.0 kg/ha
  % damage: 45%
Brassica napus; 2.0 kg/ha
  % damage: 5%
Brassica napus; 4.0 kg/ha
  % damage: 20%
